Data taken from ChEMBL document CHEMBL1201862, “PubChem BioAssay data set” (2004).
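In this assay, cells in 96-well plates receive the compound at five concentrations for 48 hours. Endpoints are linearly interpolated between the surrounding concentrations. GI50 is the concentration that inhibits growth by half.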 Active and inactive are the calls of the source. Rule as the data show it: active = GI50 up to about 1.1 µM and inactive = higher.

How the values were obtained:
Experiment in all cases: growth of human tumour cells (NCI), 48 h
HCT-15 = test system: HCT-15
U-251 = test system: U-251
NCI/ADR-RES = test system: NCI/ADR-RES
SK-MEL-2 = test system: SK-MEL-2
SK-MEL-28 = test system: SK-MEL-28
OVCAR-4 = test system: OVCAR-4
MOLT-4 = test system: MOLT-4
Hs-578T = test system: Hs-578T
A498 = test system: A498
ACHN = test system: ACHN
K562 = test system: K562
DU-145 = test system: DU-145
PC-3 = test system: PC-3
MCF7 = test system: MCF7
SF-539 = test system: SF-539
SNB-75 = test system: SNB-75
SF-295 = test system: SF-295
OVCAR-5 = test system: OVCAR-5
HOP-62 = test system: HOP-62
HOP-92 = test system: HOP-92

Row | SMILES | GI50 (HCT-15) | GI50 (U-251) | GI50 (NCI/ADR-RES) | GI50 (SK-MEL-2) | GI50 (SK-MEL-28) | GI50 (OVCAR-4) | GI50 (MOLT-4) | GI50 (Hs-578T) | GI50 (A498) | GI50 (ACHN) | GI50 (K562) | GI50 (DU-145) | GI50 (PC-3) | GI50 (MCF7) | GI50 (SF-539) | GI50 (SNB-75) | GI50 (SF-295) | GI50 (OVCAR-5) | GI50 (HOP-62) | GI50 (HOP-92)
1 | NC(Cc1cc(Br)c(O)c(Br)c1)C(=O)O (configuration not stated) | > 100 µM | > 100 µM (inactive) | > 100 µM (inactive) | > 100 µM (inactive) | > 100 µM (inactive) | > 100 µM (inactive) | > 100 µM (inactive) | > 100 µM (inactive) | > 100 µM (inactive) | > 100 µM (inactive) | > 100 µM (inactive) | > 100 µM (inactive) | > 100 µM (inactive) | > 100 µM (inactive) | > 100 µM (inactive) | > 100 µM (inactive) | > 100 µM (inactive) | > 100 µM (inactive) | > 100 µM (inactive) | > 100 µM (inactive)
2 | CN1CCC23c4c5ccc(Oc6nnnn6-c6ccccc6)c4OC2c2[nH]c4ccccc4c2CC3(O)C1C5 (configuration not stated) | 2.43 µM | 1.85 µM (inactive) | 5.37 µM (inactive) | 1.78 µM (inactive) | 2.1 µM (inactive) | 2.54 µM (inactive) | 1.84 µM (inactive) | 9.25 µM (inactive) | 2.4 µM (inactive) | 1.74 µM (inactive) | 1.81 µM (inactive) | 7.16 µM (inactive) | 3.68 µM (inactive) | 2.27 µM (inactive) | 2.62 µM (inactive) | 2.59 µM (inactive) | 3.95 µM (inactive) | 17.2 µM (inactive) | 3.24 µM (inactive) | 2.07 µM (inactive)
3 | CCOC(=O)c1c(N2CCOCC2)[nH]c(=O)c(C(c2cccs2)c2c(O)c(C(=O)OCC)c(N3CCOCC3)[nH]c2=O)c1O | > 100 µM | > 100 µM (inactive) | > 100 µM (inactive) | > 100 µM (inactive) | > 100 µM (inactive) | > 100 µM (inactive) | > 100 µM (inactive) | > 100 µM (inactive) | > 100 µM (inactive) | > 100 µM (inactive) | > 100 µM (inactive) | > 100 µM (inactive) | > 100 µM (inactive) | > 100 µM (inactive) | > 100 µM (inactive) | > 100 µM (inactive) | > 100 µM (inactive) | > 100 µM (inactive) | > 100 µM (inactive) | > 100 µM (inactive)
4 | O=c1[nH]c2cc([N+](=O)[O-])c(Nc3c4ccccc4nc4ccccc34)c([N+](=O)[O-])c2[nH]1 | 2.58 µM | 3.58 µM (inactive) | 2.41 µM (inactive) | 2.72 µM (inactive) | 3.27 µM (inactive) | 3.07 µM (inactive) | 0.938 µM (active) | 7.18 µM (inactive) | 2.08 µM (inactive) | 1.98 µM (inactive) | 2.42 µM (inactive) | 2.29 µM (inactive) | 3.32 µM (inactive) | 2.59 µM (inactive) | 3.28 µM (inactive) | 3.68 µM (inactive) | 2.65 µM (inactive) | 2.4 µM (inactive) | 2.67 µM (inactive) | 2.48 µM (inactive)
5 | C1=N\CCNCCNCC/N=C\c2ccc(cc2)OCc2cccc(n2)COc2ccc/1cc2 | > 100 µM | > 100 µM (inactive) | 95.1 µM (inactive) | > 100 µM (inactive) | > 100 µM (inactive) | 68.5 µM (inactive) | 29 µM (inactive) | 99.3 µM (inactive) | > 100 µM (inactive) | > 100 µM (inactive) | 34.1 µM (inactive) | > 100 µM (inactive) | 79.4 µM (inactive) | 29.8 µM (inactive) | > 100 µM (inactive) | 47.1 µM (inactive) | > 100 µM (inactive) | > 100 µM (inactive) | > 100 µM (inactive) | > 100 µM (inactive)
6 | S=c1nc(N/N=C/c2cccs2)c2cn[nH]c2[nH]1 | 19.5 µM | 25.1 µM (inactive) | 27.2 µM (inactive) | 58.2 µM (inactive) | 46.7 µM (inactive) | 31.5 µM (inactive) | 14 µM (inactive) | > 100 µM (inactive) | 4.02 µM (inactive) | 26.8 µM (inactive) | 16.3 µM (inactive) | 34.8 µM (inactive) | 15.1 µM (inactive) | 4.23 µM (inactive) | 50.2 µM (inactive) | 97.7 µM (inactive) | 12.4 µM (inactive) | 17.2 µM (inactive) | 23.2 µM (inactive) | 52.6 µM (inactive)
7 | CC(=O)NNc1nc(C)c(C(/C=C/c2ccccc2O)=N/N=C(N)N)s1 | > 100 µM | > 100 µM (inactive) | > 100 µM (inactive) | > 100 µM (inactive) | > 100 µM (inactive) | > 100 µM (inactive) | > 100 µM (inactive) | > 100 µM (inactive) | > 100 µM (inactive) | > 100 µM (inactive) | > 100 µM (inactive) | > 100 µM (inactive) | > 100 µM (inactive) | > 100 µM (inactive) | > 100 µM (inactive) | > 100 µM (inactive) | > 100 µM (inactive) | > 100 µM (inactive) | > 100 µM (inactive) | > 100 µM (inactive)
8 | CN(C)C(=S)SN(C)C(=O)Nc1ccccc1 | 22.6 µM | 18 µM (inactive) | 3.2 µM (inactive) | 39.4 µM (inactive) | 12.2 µM (inactive) | 5.06 µM (inactive) | 2.76 µM (inactive) | > 100 µM (inactive) | 3.9 µM (inactive) | 47.2 µM (inactive) | 0.998 µM (active) | 63 µM (inactive) | 7.43 µM (inactive) | 2.67 µM (inactive) | 34.1 µM (inactive) | 28.6 µM (inactive) | 49.3 µM (inactive) | 12.2 µM (inactive) | > 65.9 µM (inactive) | 3.5 µM (inactive)
9 | Cc1cccc(/N=C/C=C(\Cl)c2ccc3ccccc3c2)c1 | 11.7 µM | 14.8 µM (inactive) | 17.7 µM (inactive) | 22.9 µM (inactive) | 17.5 µM (inactive) | 11.2 µM (inactive) | 2.56 µM (inactive) | 26.6 µM (inactive) | > 100 µM (inactive) | 16.4 µM (inactive) | 12.6 µM (inactive) | 17.7 µM (inactive) | 21 µM (inactive) | 16.4 µM (inactive) | 17.8 µM (inactive) | > 39.3 µM (inactive) | 32.1 µM (inactive) | 27.8 µM (inactive) | 17 µM (inactive) | 24.1 µM (inactive)
10 | O=C1/C(=C/c2ccc(Cl)cc2)CCC1CNc1ccc(Cl)cc1 (configuration not stated) | 2.37 µM | 9.71 µM (inactive) | 26.2 µM (inactive) | 29.2 µM (inactive) | 15.6 µM (inactive) | 18.9 µM (inactive) | 2.29 µM (inactive) | 16.1 µM (inactive) | 14.9 µM (inactive) | 1.57 µM (inactive) | 0.249 µM (active) | 13.5 µM (inactive) | 10.5 µM (inactive) | 1.29 µM (inactive) | 7.76 µM (inactive) | 32.3 µM (inactive) | 6.79 µM (inactive) | 25.2 µM (inactive) | 19.9 µM (inactive) | 19.3 µM (inactive)
11 | COc1ccc(O)c(/C=N\Nc2ccccc2)c1 | 8.65 µM | 26.2 µM (inactive) | 18.6 µM (inactive) | 4.8 µM (inactive) | 25.4 µM (inactive) | 8.45 µM (inactive) | 1.39 µM (inactive) | 30.1 µM (inactive) | 15.5 µM (inactive) | 7.85 µM (inactive) | 3.19 µM (inactive) | 25.5 µM (inactive) | 45.2 µM (inactive) | 14.8 µM (inactive) | 12.2 µM (inactive) | 49.9 µM (inactive) |  | 19.5 µM (inactive) | 44.7 µM (inactive) | 14 µM (inactive)
12 | CC(=O)Oc1ccc(/C=C/C(=O)O[C@H]2CCCC[C@@H]2OC(=O)/C=C/c2ccc(OC(C)=O)c(OC(C)=O)c2)cc1OC(C)=O | 5.13 µM | 9.25 µM (inactive) | 19.2 µM (inactive) | 15.3 µM (inactive) | 12.8 µM (inactive) | 7.08 µM (inactive) | 2.64 µM (inactive) | 6.21 µM (inactive) | 18.5 µM (inactive) | 5.83 µM (inactive) | 5.75 µM (inactive) | 13.3 µM (inactive) | 8.28 µM (inactive) | 13.8 µM (inactive) | 6.38 µM (inactive) | 9.46 µM (inactive) | 4.37 µM (inactive) | 12.3 µM (inactive) | 7.38 µM (inactive) | 4.62 µM (inactive)
13 | COc1cc2cc(C(=O)N3CC(COS(C)(=O)=O)c4c3cc(N)c3ccccc43)[nH]c2c(OC)c1OC (configuration not stated) | < 0.0206 µM | 0.0141 µM (active) | 0.0123 µM (active) | 0.0716 µM (active) | 0.0266 µM (active) | < 0.0376 µM (active) | 0.0149 µM (active) | 0.252 µM (active) | 0.0219 µM (active) | < 0.01 µM (active) |  | 0.0154 µM (active) | 0.0422 µM (active) | < 0.0122 µM (active) | 0.0177 µM (active) | < 0.01 µM (active) | 0.0195 µM (active) | 0.021 µM (active) | 0.0191 µM (active) | < 0.0266 µM (active)
14 | COC(=O)NCCc1n[nH]c2c1C(=O)C=C(Nc1ccccc1)C2=O | 22.4 µM | 15.2 µM (inactive) | 28.5 µM (inactive) | 20.6 µM (inactive) |  | 15.4 µM (inactive) | 19.7 µM (inactive) | 36.7 µM (inactive) | 47.2 µM (inactive) | 32.4 µM (inactive) | 28.2 µM (inactive) | 47.5 µM (inactive) | 30.3 µM (inactive) | 15.5 µM (inactive) | 20.7 µM (inactive) | 57.3 µM (inactive) | 30.3 µM (inactive) | 29 µM (inactive) | 68.2 µM (inactive) | 27.7 µM (inactive)
